{
  "source": "patent EP0337503B1",
  "about": "“Fumigation methods and compositions” (Entek Corporation, priority 1983, dated 1984)",
  "key": {"[1]": {"tested_on": "nematode larvae", "assay": "In-vitro nematocidal test: larvae treated in aqueous suspension, injected into root zone of tomato plants, gall count", "format": "in vivo, Meloidogyne incognita", "conditions": "for Gall Count, replicate 2: control 88; for Gall Count, Mean: control 89; for Gall Count, replicate 1: control 90", "protocol": "The procedure of Example 2 is repeated except that potassium tetrathiocarbonate is substituted for stabilized ammonium tetrathiocarbonate and an in-vitro nematocidal test is used. In the in-vitro test, the nematode larvae are treated in aqueous suspension for 1 hour at the concentrations of fumigant given in the following table, washed twice with water, and injected into the active root zone of the tomato plants. After thirty days the roots are harvested, examined for galling, giving the results summarized below."}, "[2]": {"assay": "Effect of pH on production of CS2 from thiocarbonates in citrate-phosphate buffers, gas chromatography of air", "format": "physicochemical", "protocol": "Pure carbon disulfide is also injected, for comparison. A syringe is used to periodically sample air in the bottle, and the air is analyzed by gas chromatography."}, "[3]": {"assay": "Decomposition in sandy loam soil at different moisture, CS2 in air space by gas chromatography", "format": "physicochemical", "conditions": "hours to maximum CS2 concentration in the air space", "protocol": "A sandy loam soil is placed in 1-liter glass bottles, fitted with stoppers having fluorocarbon liners and silicone rubber septa, to give a soil depth of about 4 cm. […] Thiocarbonate solution or carbon disulfide is injected near the bottom of the soil layer, the bottles are promptly sealed, and the air space in the bottles is sampled at intervals with a syringe, for gas chromatographic analysis of CS2. Results are summarized below, wherein degradation time is the number of hours required to achieve the maximum CS2 concentration in the air space."}, "[4]": {"assay": "Rate of carbon disulfide loss from solutions, nitrogen bubbling, mass spectrometer", "format": "physicochemical", "conditions": "undiluted: Prep. 1 100%; pure carbon disulfide for comparison", "protocol": "The rate at which carbon disulfide is lost from diluted ammonium thiocarbonate compositions is determined by bubbling nitrogen through the solutions, and measuring the carbon disulfide content of the gas which leaves the solution, using a mass spectrometer.\nIn the determination, the solution, corresponding to that of Preparation 1 (containing 14.1 percent by weight carbon disulfide), is compared to pure carbon disulfide, and to serial dilutions of the Preparation 1 solution with water, which prepared 10, 1 and 0.1 volume percent solutions of the original composition.\nResults are as tabulated, wherein k is the calculated first order rate constant for loss of carbon disulfide, and t is the solution half-life."}, "[5]": {"tested_on": "root-knot nematode larvae (Meloidogyne incognita)", "assay": "Greenhouse nematocide experiment with tomato plants, soil drench, root gall count", "format": "in vivo", "conditions": "30 days; for Gall Counts, replicate 3: control 1; for Gall Counts, Mean: control 4.0; for Gall Counts, replicate 2: control 7; for Gall Counts, replicate 1: control 4", "protocol": "In the experiment, thirty containers are used, each containing about 500 grams of sterilized sandy loam soil. Each container contains one tomato plant. Each container is injected with four 5-milliliter portions of extract from nematode-infested pepper roots, one inch below the soil surface, producing an initial population of 2000 root-knot nematode larvae (Meloidogyne incognita) per container.\nTen treatments are replicated three times, each treatment consisting of drenching the soil with a solution containing the fumigant to provide the dosage of CS2 given in the following table. The solutions are diluted with sufficient water to saturate the soil. The treatments include calcium tetrathiocarbonate, stabilized ammonium tetrathiocarbonate, and carbon disulfide at three levels, plus an untreated control. After drenching, each container is allowed to stand at ambient conditions. The plants are harvested after 30 days of growth, and soil is removed from the roots by a gentle washing with water. By use of a magnifying glass, the number of root galls is counted on each plant.\nResults are summarized below, wherein the \"Application\" represents milligrams of treatment per kilogram of soil, calculated as the thiocarbonate salt and the equivalent carbon disulfide. Gall counts are mean values from the three replicates."}, "[6]": {"conditions": "10 ppm CS2, larvae treated 1 hour"}, "[7]": {"conditions": "20 ppm CS2, larvae treated 1 hour"}, "[8]": {"conditions": "highest application: 638/89 ppm ((NH4)2CS4·(NH4)2S), 730/91 (CaCS4), 97 ppm (CS2)"}, "[9]": {"conditions": "lowest application: 213/30 ppm ((NH4)2CS4·(NH4)2S), 245/31 (CaCS4), 32 ppm (CS2)"}, "[10]": {"conditions": "middle application: 425/60 ppm ((NH4)2CS4·(NH4)2S), 490/61 (CaCS4), 65 ppm (CS2)"}},
  "data": [
    {"compound": "S=C=S", "note": "[CS2, carbon disulfide, reference compound]", "values": [
      {"measurement": "Gall Count, replicate 2", "setting": "[1]; [6]", "result": 149},
      {"measurement": "Gall Count, Mean", "setting": "[1]; [6]", "result": 106.5},
      {"measurement": "Gall Count, replicate 1", "setting": "[1]; [6]", "result": 64},
      {"measurement": "Gall Count, replicate 2", "setting": "[1]; [7]", "result": 73},
      {"measurement": "Gall Count, Mean", "setting": "[1]; [7]", "result": 51.0},
      {"measurement": "Gall Count, replicate 1", "setting": "[1]; [7]", "result": 29},
      {"measurement": "Half-life (minutes) for production of carbon disulfide", "setting": "[2]; pH 5.2, 125 milligrams per liter of thiocarbonate ion", "result": 1, "unit": "min"},
      {"measurement": "Half-life (minutes) for production of carbon disulfide", "setting": "[2]; pH 6.0, 125 milligrams per liter of thiocarbonate ion", "result": 1, "unit": "min"},
      {"measurement": "Half-life (minutes) for production of carbon disulfide", "setting": "[2]; pH 7.0, 125 milligrams per liter of thiocarbonate ion", "result": 1, "unit": "min"},
      {"measurement": "Half-life (minutes) for production of carbon disulfide", "setting": "[2]; pH 8.0, 125 milligrams per liter of thiocarbonate ion, CaCS4 values above pH 7 called unreliable", "result": 1, "unit": "min"},
      {"measurement": "Degradation Time", "setting": "[3]; Soil Moisture 0 % of Saturation", "result": 3.5, "unit": "h"},
      {"measurement": "Degradation Time", "setting": "[3]; Soil Moisture 50 % of Saturation", "result": 3.5, "unit": "h"},
      {"measurement": "Degradation Time", "setting": "[3]; Soil Moisture 100 % of Saturation", "result": 3.5, "unit": "h"},
      {"measurement": "k, calculated first order rate constant for loss of carbon disulfide", "setting": "[4]", "result": "2.0 (1)/(hour)"},
      {"measurement": "Gall Counts, replicate 3", "setting": "[5]; [8]", "result": 9},
      {"measurement": "Gall Counts, Mean", "setting": "[5]; [8]", "result": 20.0},
      {"measurement": "Gall Counts, replicate 2", "setting": "[5]; [8]", "result": 24},
      {"measurement": "Gall Counts, replicate 1", "setting": "[5]; highest application: 638 ppm salt/89 ppm Eq. CS2 ((NH4)2CS4·(NH4)2S), 730/91 (CaCS4), 97 ppm (CS2)", "result": 27},
      {"measurement": "Gall Counts, replicate 3", "setting": "[5]; [9]", "result": 12},
      {"measurement": "Gall Counts, Mean", "setting": "[5]; [9]", "result": 22.0},
      {"measurement": "Gall Counts, replicate 2", "setting": "[5]; [9]", "result": 23},
      {"measurement": "Gall Counts, replicate 1", "setting": "[5]; lowest application: 213 ppm salt/30 ppm Eq. CS2 ((NH4)2CS4·(NH4)2S), 245/31 (CaCS4), 32 ppm (CS2)", "result": 31},
      {"measurement": "Gall Counts, replicate 3", "setting": "[5]; [10]", "result": 33},
      {"measurement": "Gall Counts, Mean", "setting": "[5]; [10]", "result": 26.7},
      {"measurement": "Gall Counts, replicate 2", "setting": "[5]; [10]", "result": 19},
      {"measurement": "Gall Counts, replicate 1", "setting": "[5]; middle application: 425 ppm salt/60 ppm Eq. CS2 ((NH4)2CS4·(NH4)2S), 490/61 (CaCS4), 65 ppm (CS2)", "result": 28}
    ]}
  ]
}
